We go through 17 compounds from patent publication US20240285785A1, “TARGETING SORTILIN” (priority 2022, published 2024).

A short description of this series: Murine serum stability assay. Particulars: 37° C.; for half-life: male, CD-1, mouse, read-out: Murine serum stability assay, T1/2. The class given is in vitro ADME, mouse (CD-1). As to the method: Serum was drawn from male CD-1 mice by Pharmidex. Lyophilized peptides were solubilized in DMSO and then further diluted into male mouse (CD-1) serum at 37° C. in duplicates. The reaction was incubated at 37° C. and samples extracted at 6 time points: 0, 0.16, 0.5, 1, 3, and 6 hrs. Acetonitrile (ACN) with internal standard (tolbutamide) was added to stop the incubation. Samples were centrifuged, and the supernatant was analyzed by HPLC-MS/MS for the parent compound.

Setting [1] is: mouse serum, male CD-1 mouse serum.

Read-outs that look alike come from different tables or passages of the source.

Turning to `CC(C)C[C@H](NC(=O)[C@H](CC(C)C)NC(=O)[C@H](CCC(N)=O)NC(=O)[C@H](CCCNC(=N)N)NC(=O)[C@H](CC(C)C)NC(=O)[C@H](C)NC(=O)[C@@H]1CCCN1C(=O)[C@H](Cc1ccccc1)NC(=O)[C@H](CCCNC(=N)N)NC(=O)[C@H](CC(C)C)NC(=O)[C@@H]1CCCN1C(=O)[C@H](C)NC(=O)[C@H](CC(=O)O)NC(=O)[C@H](Cc1c[nH]c2ccccc12)NC(=O)[C@H](CCCNC(=N)N)NC(=O)[C@@H]1CCCN1C(=O)[C@H](C)N)C(=O)O` [Arb-SAR-C14], the half-life (serum) turned out to be 7.91 min. As for `CC(C)C[C@H](NC(=O)[C@H](C)NC(=O)[C@@H]1CCCN1C(=O)[C@H](CC(=O)O)NC(=O)[C@H](CCCNC(=N)N)NC(=O)[C@H](CC(C)C)NC(=O)[C@@H]1CCCN1C(=O)[C@H](C)NC(=O)[C@H](CC(=O)O)NC(=O)[C@H](Cc1c[nH]c2ccccc12)NC(=O)[C@H](CCCNC(=N)N)NC(=O)[C@@H]1CCCN1C(=O)[C@H](C)N)C(=O)N[C@@H](CCCNC(=N)N)C(=O)N[C@@H](CCC(N)=O)C(=O)N[C@@H](CC(C)C)C(=O)N[C@@H](CC(C)(C)C)C(=O)O` [Arb-SAR-J05], the half-life under setting [1] is 10.1 min. Turning to `CC(C)C[C@H](NC(=O)[C@H](CC(C)(C)C)NC(=O)[C@H](CCC(N)=O)NC(=O)[C@H](CCCNC(=N)N)NC(=O)[C@H](CC(C)C)NC(=O)[C@H](C)NC(=O)[C@@H]1CCCN1C(=O)[C@H](CC(=O)O)NC(=O)[C@H](CCCNC(=N)N)NC(=O)[C@H](CC(C)C)NC(=O)[C@@H]1CCCN1C(=O)[C@H](C)NC(=O)[C@H](CC(=O)O)NC(=O)[C@H](Cc1c[nH]c2ccccc12)NC(=O)[C@H](CCCNC(=N)N)NC(=O)[C@@H]1CCCN1C(=O)[C@H](C)N)C(=O)O` [Arb-SAR-J21], under setting [1], the half-life was determined as 11 min. The same measure, in the same setting: under `CC(C)CC[C@H](NC(=O)[C@H](CCCNC(=N)N)NC(=O)[C@H](CC(C)C)NC(=O)[C@H](C)NC(=O)[C@@H]1CCCN1C(=O)[C@H](CC(=O)O)NC(=O)[C@H](CCCNC(=N)N)NC(=O)[C@H](CC(C)C)NC(=O)[C@@H]1CCCN1C(=O)[C@H](C)NC(=O)[C@H](CC(=O)O)NC(=O)[C@H](Cc1c[nH]c2ccccc12)NC(=O)[C@H](CCCNC(=N)N)NC(=O)[C@@H]1CCCN1C(=O)[C@H](C)N)C(=O)N[C@@H](CC(C)C)C(=O)N[C@@H](CC(C)C)C(=O)O` [Arb-SAR-K01] stands 13.8 min. Take `CC(C)C[C@H](NC(=O)[C@H](CC(C)C)NC(=O)[C@H](CCO)NC(=O)[C@H](CCCNC(=N)N)NC(=O)[C@H](CC(C)C)NC(=O)[C@H](C)NC(=O)[C@@H]1CCCN1C(=O)[C@H](CC(=O)O)NC(=O)[C@H](CCCNC(=N)N)NC(=O)[C@H](CC(C)C)NC(=O)[C@@H]1CCCN1C(=O)[C@H](C)NC(=O)[C@H](CC(=O)O)NC(=O)[C@H](Cc1c[nH]c2ccccc12)NC(=O)[C@H](CCCNC(=N)N)NC(=O)[C@@H]1CCCN1C(=O)[C@H](C)N)C(=O)O` [Arb-SAR-K3]: the half-life under setting [1] came out at 11.2 min. Turning to `CC(C)CC[C@H](NC(=O)[C@H](CCC(C)C)NC(=O)[C@H](CCC(N)=O)NC(=O)[C@H](CCCNC(=N)N)NC(=O)[C@H](CC(C)C)NC(=O)[C@H](C)NC(=O)[C@@H]1CCCN1C(=O)[C@H](CC(=O)O)NC(=O)[C@H](CCCNC(=N)N)NC(=O)[C@H](CC(C)C)NC(=O)[C@@H]1CCCN1C(=O)[C@H](C)NC(=O)[C@H](CC(=O)O)NC(=O)[C@H](Cc1c[nH]c2ccccc12)NC(=O)[C@H](CCCNC(=N)N)NC(=O)[C@@H]1CCCN1C(=O)[C@H](C)N)C(=O)O` [Arb-SAR-N22], the half-life under setting [1] was found to be 16.7 min. For the compound `CC(C)C[C@H](NC(=O)[C@H](C)NC(=O)[C@@H]1CCCN1C(=O)[C@H](CC(=O)O)NC(=O)[C@H](CCCNC(=N)N)NC(=O)[C@H](CC(C)C)NC(=O)[C@@H]1CCCN1C(=O)[C@H](C)NC(=O)[C@H](CC(=O)O)NC(=O)[C@H](Cc1c[nH]c2ccccc12)NC(=O)[C@H](CCCNC(=N)N)NC(=O)[C@@H]1CCCN1C(=O)[C@H](C)N)C(=O)N[C@@H](CCCNC(=N)N)C(=O)N[C@@H](CCC(N)=O)C(=O)N[C@@H](Cc1ccccc1)C(=O)N[C@@H](CC(C)(C)C)C(=O)O` [Arb-SAR-P15], the half-life under setting [1] was 9.79 min. Still for that read-out and setting: under `CC(C)CC[C@H](NC(=O)[C@H](CCC(N)=O)NC(=O)[C@H](CCCNC(=N)N)NC(=O)[C@H](CC(C)C)NC(=O)[C@H](C)NC(=O)[C@@H]1CCCN1C(=O)[C@H](CC(=O)O)NC(=O)[C@H](CCCNC(=N)N)NC(=O)[C@H](CC(C)C)NC(=O)[C@@H]1CCCN1C(=O)[C@H](C)NC(=O)[C@H](CC(=O)O)NC(=O)[C@H](Cc1c[nH]c2ccccc12)NC(=O)[C@H](CCCNC(=N)N)NC(=O)[C@@H]1CCCN1C(=O)[C@H](C)N)C(=O)N[C@@H](CC(C)(C)C)C(=O)O` [Arb-SAR-P17] stands 12.8 min. Still for that read-out and setting: with `CCCC[C@H](NC(=O)[C@H](CCC(N)=O)NC(=O)[C@H](CCCNC(=N)N)NC(=O)[C@H](CC(C)C)NC(=O)[C@H](C)NC(=O)[C@@H]1CCCN1C(=O)[C@H](CC(=O)O)NC(=O)[C@H](CCCNC(=N)N)NC(=O)[C@H](CC(C)C)NC(=O)[C@@H]1CCCN1C(=O)[C@H](C)NC(=O)[C@H](CC(=O)O)NC(=O)[C@H](Cc1c[nH]c2ccccc12)NC(=O)[C@H](CCCNC(=N)N)NC(=O)[C@@H]1CCCN1C(=O)[C@H](C)N)C(=O)N[C@@H](CC(C)(C)C)C(=O)O` [Arb-SAR-P19] the figure was 11.8 min. With `CC(C)C[C@H](NC(=O)[C@H](C)NC(=O)[C@@H]1CCCN1C(=O)[C@H](CC(=O)O)NC(=O)[C@H](CCCNC(=N)N)NC(=O)[C@H](CC(C)C)NC(=O)[C@@H]1CCCN1C(=O)[C@H](C)NC(=O)[C@H](CC(=O)O)NC(=O)[C@H](Cc1c[nH]c2ccccc12)NC(=O)[C@H](CCCNC(=N)N)NC(=O)[C@@H]1CCCN1C(=O)[C@H](C)N)C(=O)N[C@@H](CCCNC(=N)N)C(=O)N[C@@H](CCC(N)=O)C(=O)N[C@@H](CC1CC1)C(=O)N[C@@H](CC(C)(C)C)C(=O)O` [Arb-SAR-P21], the half-life under setting [1] was determined as 9.33 min. With `CC(C)C[C@H](NC(=O)[C@H](C)NC(=O)[C@@H]1CCCN1C(=O)[C@H](CC(=O)O)NC(=O)[C@H](CCCNC(=N)N)NC(=O)[C@H](CC(C)C)NC(=O)[C@@H]1CCCN1C(=O)[C@H](C)NC(=O)[C@H](CC(=O)O)NC(=O)[C@H](Cc1c[nH]c2ccccc12)NC(=O)[C@H](CCCNC(=N)N)NC(=O)[C@@H]1CCCN1C(=O)[C@H](C)N)C(=O)N[C@@H](CCCNC(=N)N)C(=O)N[C@@H](CCC(N)=O)C(=O)N[C@@H](CC(C)(C)C)C(=O)N[C@@H](CC(C)(C)C)C(=O)O` [Arb-SAR-P22], the half-life under setting [1] was 9.96 min. In the case of `CC(C)C[C@H](NC(=O)[C@H](C)NC(=O)[C@@H]1CCCN1C(=O)[C@H](CC(=O)O)NC(=O)[C@H](CCCNC(=N)N)NC(=O)[C@H](CC(C)C)NC(=O)[C@@H]1CCCN1C(=O)[C@H](C)NC(=O)[C@H](CC(=O)O)NC(=O)[C@H](Cc1c[nH]c2ccccc12)NC(=O)[C@H](CCCNC(=N)N)NC(=O)[C@@H]1CCCN1C(=O)[C@H](C)N)C(=O)N[C@@H](CCCNC(=N)N)C(=O)N[C@@H](CCC(N)=O)C(=O)N[C@H](C(=O)N[C@@H](CC(C)(C)C)C(=O)O)C(C)(C)C` [Arb-SAR-P23], the half-life under setting [1] was determined as 12.7 min. For `CC(C)C[C@H](NC(=O)[C@H](C)NC(=O)[C@@H]1CCCN1C(=O)[C@H](CC(=O)O)NC(=O)[C@H](CCCNC(=N)N)NC(=O)[C@H](CC(C)C)NC(=O)[C@@H]1CCCN1C(=O)[C@H](C)NC(=O)[C@H](CC(=O)O)NC(=O)[C@H](Cc1c[nH]c2ccccc12)NC(=O)[C@H](CCCNC(=N)N)NC(=O)[C@@H]1CCCN1C(=O)[C@H](C)N)C(=O)N[C@@H](CCCNC(=N)N)C(=O)N[C@@H](CCC(N)=O)C(=O)N[C@@H](CC1CCC1)C(=O)N[C@@H](CC(C)(C)C)C(=O)O` [Arb-SAR-P24], the half-life under setting [1] was 10.1 min. Consider `CC(C)C[C@H](NC(=O)[C@H](C)NC(=O)[C@@H]1CCCN1C(=O)[C@H](CC(=O)O)NC(=O)[C@H](CCCNC(=N)N)NC(=O)[C@H](CC(C)C)NC(=O)[C@@H]1CCCN1C(=O)[C@H](C)NC(=O)[C@H](CC(=O)O)NC(=O)[C@H](Cc1c[nH]c2ccccc12)NC(=O)[C@H](CCCNC(=N)N)NC(=O)[C@@H]1CCCN1C(=O)[C@H](C)N)C(=O)N[C@@H](CCCNC(=N)N)C(=O)N[C@@H](CCC(N)=O)C(=O)N[C@@H](Cc1ccccc1)C(=O)N[C@@H](CC1CCC1)C(=O)O` [Arb-SAR-Q7], for which the half-life under setting [1] stood at 7.73 min. As to `CC(C)CC[C@H](NC(=O)[C@H](CCC(N)=O)NC(=O)[C@H](CCCNC(=N)N)NC(=O)[C@H](CC(C)C)NC(=O)[C@H](C)NC(=O)[C@@H]1CCCN1C(=O)[C@H](CC(=O)O)NC(=O)[C@H](CCCNC(=N)N)NC(=O)[C@H](CC(C)C)NC(=O)[C@@H]1CCCN1C(=O)[C@H](C)NC(=O)[C@H](CC(=O)O)NC(=O)[C@H](Cc1c[nH]c2ccccc12)NC(=O)[C@H](CCCNC(=N)N)NC(=O)[C@@H]1CCCN1C(=O)[C@H](C)N)C(=O)N[C@@H](CC1CCC1)C(=O)O` [Arb-SAR-Q09], the half-life under setting [1] came out at 11.4 min.

Take `CC(C)C[C@H](NC(=O)[C@H](C)NC(=O)[C@@H]1CCCN1C(=O)[C@H](CC(=O)O)NC(=O)[C@H](CCCNC(=N)N)NC(=O)[C@H](CC(C)C)NC(=O)[C@@H]1CCCN1C(=O)[C@H](C)NC(=O)[C@H](CC(=O)O)NC(=O)[C@H](Cc1c[nH]c2ccccc12)NC(=O)[C@H](CCCNC(=N)N)NC(=O)[C@@H]1CCCN1C(=O)[C@H](C)N)C(=O)N[C@@H](CCCNC(=N)N)C(=O)N[C@@H](CCC(N)=O)C(=O)N[C@@H](CC1CC1)C(=O)N[C@@H](CC1CCC1)C(=O)O` [Arb-SAR-Q13]: the half-life under setting [1] came to 14.1 min.

Take `CC(C)C[C@H](NC(=O)[C@H](C)NC(=O)[C@@H]1CCCN1C(=O)[C@H](CC(=O)O)NC(=O)[C@H](CCCNC(=N)N)NC(=O)[C@H](CC(C)C)NC(=O)[C@@H]1CCCN1C(=O)[C@H](C)NC(=O)[C@H](CC(=O)O)NC(=O)[C@H](Cc1c[nH]c2ccccc12)NC(=O)[C@H](CCCNC(=N)N)NC(=O)[C@@H]1CCCN1C(=O)[C@H](C)N)C(=O)N[C@@H](CCCNC(=N)N)C(=O)N[C@@H](CCC(N)=O)C(=O)N[C@H](C(=O)N[C@@H](CC1CCC1)C(=O)O)C(C)(C)C` [Arb-SAR-Q15]: the “Murine serum stability assay, T1/2” value (male CD-1 mouse serum, listed as Aro-SAR-Q15) was determined as 18.92 min. Besides, under setting [1], the half-life came to 16.9 min.
